# Measured values taken from EP3041353B1, “COMPOSITIONS COMPRISING BACTERIOSTATIC AGENTS AND BRILLIANT BLUE G” (priority 2013, dated 2015).
# Experiments:
# [1] = system: Pseudomonas putida DSM 291; experiment: Bacteriostatic effect of Octenidin with BBG: turbidity after 24 h incubation; format: cell-based; parameters: key: +: Bakterienwachstum nach 24 h Inkubation; -: kein Bakterienwachstum nach 24 h Inkubation; settings: no BBG
# Experimental: (§1) Zur Untersuchung des Einflusses von BBG auf die bakteriostatische Wirkung wurden Bakterien 24 h mit erfindungsgemäßen Zusammensetzungen, Benzalkoniumchlorid (BAK) und Octenidin (Oct) als Bakteriostatikum enthielten, inkubiert. Wenn sich die Inkubationsmischung trübte, wurde das als Bakterienwachstum interpretiert. Zum Vergleich wurde Brillantblau R (BBR) anstelle von BBG eingesetzt. Die Ergebnisse sind in den Tabellen 1-4 wiedergegeben. Tabelle 1: Einfluss von BBG und BBR auf die bakteriostatische Wirkung von BAK gegenüber Escherichia coli (E. coli), + = Bakterienwachstum nach 24 h Inkubation, - = kein Bakterienwachstum nach 24 h Inkubation, R = Brillantblau R (BBR), G = Brillantblau G (BBG).
# (§2) Gram-negative Bakterien (hier E. coli) sind widerstandsfähiger als Gram-positive Bakterien (hier Bacillus sp.) und wachsen konzentrationsabhängig. […] Tabelle 3: Einfluss von BBG auf die bakteriostatische Wirkung von Octenidin (Oct) gegenüber Gram-negativen Bakterien., + = Bakterienwachstum nach 24 h Inkubation, - = kein Bakterienwachstum nach 24 h Inkubation, BBG = Brillantblau G.
# Vibrio sp. Gal12 = experiment: as above; format: cell-based; parameters: key: +: Bakterienwachstum nach 24 h Inkubation; -: kein Bakterienwachstum nach 24 h Inkubation; settings: no BBG
# Experimental: as §1, §2
# Escherichia coli DH5α = experiment: as above; format: cell-based; parameters: key: +: Bakterienwachstum nach 24 h Inkubation; -: kein Bakterienwachstum nach 24 h Inkubation; settings: no BBG
# Experimental: as §1, §2
# Bacillus megaterium = experiment: as above; format: cell-based; parameters: key: +: Bakterienwachstum nach 24 h Inkubation; -: kein Bakterienwachstum nach 24 h Inkubation; settings: no BBG
# Experimental: as §1
# (§3) Tabelle 4: Einfluss von BBG auf die bakteriostatische Wirkung von Octenidin (Oct) gegenüber Gram-positiven Bakterien., + = Bakterienwachstum nach 24 h Inkubation, - = kein Bakterienwachstum nach 24 h Inkubation, +/- = geringes Wachstum nach 24 h Inkubation, BBG = Brillantblau G.
# Paenibacillus sp. = experiment: as above; format: cell-based; parameters: key: +: Bakterienwachstum nach 24 h Inkubation; -: kein Bakterienwachstum nach 24 h Inkubation; settings: no BBG
# Experimental: as §1, §3
# [2] = system: Clavibacter michiganensis; experiment: as above; format: cell-based; parameters: key: +: Bakterienwachstum nach 24 h Inkubation; -: kein Bakterienwachstum nach 24 h Inkubation; settings: no BBG
# Experimental: as §1, §3
# Bacillus subtilis = experiment: as above; format: cell-based; parameters: key: +: Bakterienwachstum nach 24 h Inkubation; -: kein Bakterienwachstum nach 24 h Inkubation; settings: no BBG
# Experimental: as §1, §3
# HCE-Zellen = format: cell-based, human
# Experimental: Die Erfindung wird im Folgenden rein zu Veranschaulichungszwecken anhand der angehängten Figuren und von Ausführungsbeispielen näher erläutert. • Figur 1 Effekt von 0,025% BBG auf die Toxizität von unterschiedlichen Konzentrationen (in Gew.-%) von Benzalkoniumchlorid (BAK) auf HCE-Zellen (HCE = human corneal epithelium, Menschliche Hornhautepithelzellen) bei verschiedenen Einwirkdauern (5, 30, 60 min). Oben: BAK ohne BBG. Unten: BAK mit BBG. Inkubationsmedium: Phosphat-gepufferte Kochsalzlösung (PBS). • Figur 2 Effekt von BBG (in Gew.-%) in unterschiedlichen Konzentrationen auf die Toxizität von BAK bei 0,003% (oben) und 0,008% (unten). PBS = Phosphat-gepufferte Kochsalzlösung; BBS = balanced salt solution (ausgeglichene Salzlösung). • Figur 3 Effekt von BBG (0,025 Gew.-%) auf die Toxizität von Octenidindihydrochlorid (Oct) in unterschiedlichen Konzentrationen (in Gew.-%) nach 5 min Inkubation (oben) und 30 min Inkubation (unten). Octenidin alone = Octenidin allein (ohne BBG). • Figur 4 Effekt von BBG (0,025 %) auf die Toxizität von Cetylpyridiniumchlorid (CPC) in unterschiedlichen Konzentrationen (in Gew.-%) nach 5 min Inkubation (oben) und 30 min Inkubation (unten). CPC alone = Cetylpyridiniumchlorid allein (ohne BBG). • Figur 5 Effekt von BBG (0,025 %) auf die Toxizität von Chlorhexidin (CHex) in Form von Chlorhexidindigluconat in unterschiedlichen Konzentrationen (in Gew.-%) nach 5 min Inkubation (oben) und 30 min Inkubation (unten). Chlorhexidin alone = Chlorhexidin allein (ohne BBG)
# Figur 1 zeigt die Wirkung von BBG 0,025% Gew.-% auf die Toxizität von unterschiedlichen Konzentrationen (in Gew.-%) von Benzalkoniumchlorid (BAK) auf HCE-Zellen (HCE = human corneal epithelium, Menschliche Hornhautepithelzellen) bei verschiedenen Einwirkdauern (5, 30, 60 min).
# Figur 2 zeigt die Wirkung von BBG (in Gew.-%) in unterschiedlichen Konzentrationen und zwei unterschiedlichen Medien (PBS und BSS) auf die Toxizität von BAK bei 0,003% (oben) und 0,008% (unten) bei HCE-Zellen. Die Schutzwirkung von BBG bei niedrigeren BAK-Konzentrationen setzt schon bei 0,003% BBG ein. Bei höheren BAK-Konzentrationen sind 0,015% notwendig.
# Figur 3 zeigt die Wirkung von BBG (0,025 Gew.-%) auf die Toxizität von Octenidin (Oct) Form von Octenidindihydrochlorid in unterschiedlichen Konzentrationen (in Gew.-%) nach 5 min Inkubation (oben) und 30 min Inkubation (unten). Octenidin alone = Octenidin allein (ohne BBG). […] BBG (0,025 Gew.-%) kann diesen Effekt bei 5 min Inkubation (links) bis zu einer Oct-Konzentration von 0,01% (der höchsten getesteten Konzentration) verhindern. Bei 30 min Einwirkzeit (rechts) ist erst ab 0,009 Gew.-% Oct der Schutz nicht mehr maximal.
# Die Figuren 4 und 5 zeigen die Wirkung von BBG (0,025 Gew.-%) auf die Toxizität von Cetylpyridiniumchlorid (CPC, Fig. 4) und Chlorhexidin (CHex in Form von Chlorhexidindigluconat, Fig. 5) in unterschiedlichen Konzentrationen (in Gew.-%) nach 5 min Inkubation (jeweils oben) und 30 min Inkubation (jeweils unten).
# Bacillus sp. = experiment: Bacteriostatic effect of BAK with BBG/BBR: turbidity after 24 h incubation; format: cell-based; parameters: key to Bakterienwachstum nach 24 h Inkubation: +: Bakterienwachstum nach 24 h Inkubation; -: kein Bakterienwachstum nach 24 h Inkubation
# Experimental: as §1
# Tabelle 2: Einfluss von BBG und BBR auf die bakteriostatische Wirkung von BAK gegenüber Bacillus sp., + = Bakterienwachstum nach 24 h Inkubation, - = kein Bakterienwachstum nach 24 h Inkubation, R = Brillantblau R (BBR), G = Brillantblau G (BBG).
# [3] = system: Escherichia coli (E. coli); experiment: as above; format: cell-based; parameters: key to Bakterienwachstum nach 24 h Inkubation: +: Bakterienwachstum nach 24 h Inkubation; -: kein Bakterienwachstum nach 24 h Inkubation
# Experimental: as §1
compound,measurement,setting,value
"CCCCCCCCN=c1ccn(CCCCCCCCCCn2ccc(=NCCCCCCCC)cc2)cc1 [Octenidin, reference compound]",Bakterienwachstum nach 24 h Inkubation,"[1]; Octenidin 0,01% alone",-
same,Bakterienwachstum nach 24 h Inkubation,"[1]; Octenidin 0,002% alone",-
same,Bakterienwachstum nach 24 h Inkubation,"[1]; Octenidin 0,003% alone",-
same,Bakterienwachstum nach 24 h Inkubation,"[1]; Octenidin 0,005% alone",-
same,Bakterienwachstum nach 24 h Inkubation,"[1]; Octenidin 0,007% alone",-
same,Bakterienwachstum nach 24 h Inkubation,"[1]; Octenidin 0,009% alone",-
same,Bakterienwachstum nach 24 h Inkubation,"Vibrio sp. Gal12; Octenidin 0,01% alone",-
same,Bakterienwachstum nach 24 h Inkubation,"Vibrio sp. Gal12; Octenidin 0,002% alone",-
same,Bakterienwachstum nach 24 h Inkubation,"Vibrio sp. Gal12; Octenidin 0,003% alone",-
same,Bakterienwachstum nach 24 h Inkubation,"Vibrio sp. Gal12; Octenidin 0,005% alone",-
same,Bakterienwachstum nach 24 h Inkubation,"Vibrio sp. Gal12; Octenidin 0,007% alone",-
same,Bakterienwachstum nach 24 h Inkubation,"Vibrio sp. Gal12; Octenidin 0,009% alone",-
same,Bakterienwachstum nach 24 h Inkubation,"Escherichia coli DH5α; Octenidin 0,01% alone",-
same,Bakterienwachstum nach 24 h Inkubation,"Escherichia coli DH5α; Octenidin 0,002% alone",-
same,Bakterienwachstum nach 24 h Inkubation,"Escherichia coli DH5α; Octenidin 0,003% alone",-
same,Bakterienwachstum nach 24 h Inkubation,"Escherichia coli DH5α; Octenidin 0,005% alone",-
same,Bakterienwachstum nach 24 h Inkubation,"Escherichia coli DH5α; Octenidin 0,007% alone",-
same,Bakterienwachstum nach 24 h Inkubation,"Escherichia coli DH5α; Octenidin 0,009% alone",-
same,Bakterienwachstum nach 24 h Inkubation,"Bacillus megaterium; Octenidin 0,01% alone",-
same,Bakterienwachstum nach 24 h Inkubation,"Bacillus megaterium; Octenidin 0,002% alone",-
same,Bakterienwachstum nach 24 h Inkubation,"Bacillus megaterium; Octenidin 0,003% alone",-
same,Bakterienwachstum nach 24 h Inkubation,"Bacillus megaterium; Octenidin 0,005% alone",-
same,Bakterienwachstum nach 24 h Inkubation,"Bacillus megaterium; Octenidin 0,007% alone",-
same,Bakterienwachstum nach 24 h Inkubation,"Bacillus megaterium; Octenidin 0,009% alone",-
same,Bakterienwachstum nach 24 h Inkubation,"Paenibacillus sp.; Octenidin 0,01% alone",-
same,Bakterienwachstum nach 24 h Inkubation,"Paenibacillus sp.; Octenidin 0,002% alone",-
same,Bakterienwachstum nach 24 h Inkubation,"Paenibacillus sp.; Octenidin 0,003% alone",-
same,Bakterienwachstum nach 24 h Inkubation,"Paenibacillus sp.; Octenidin 0,005% alone",-
same,Bakterienwachstum nach 24 h Inkubation,"Paenibacillus sp.; Octenidin 0,007% alone",-
same,Bakterienwachstum nach 24 h Inkubation,"Paenibacillus sp.; Octenidin 0,009% alone",-
same,Bakterienwachstum nach 24 h Inkubation,"[2]; Octenidin 0,01% alone",-
same,Bakterienwachstum nach 24 h Inkubation,"[2]; Octenidin 0,002% alone",-
same,Bakterienwachstum nach 24 h Inkubation,"[2]; Octenidin 0,003% alone",-
same,Bakterienwachstum nach 24 h Inkubation,"[2]; Octenidin 0,005% alone",-
same,Bakterienwachstum nach 24 h Inkubation,"[2]; Octenidin 0,007% alone",-
same,Bakterienwachstum nach 24 h Inkubation,"[2]; Octenidin 0,009% alone",-
same,Bakterienwachstum nach 24 h Inkubation,"Bacillus subtilis; Octenidin 0,01% alone",-
same,Bakterienwachstum nach 24 h Inkubation,"Bacillus subtilis; Octenidin 0,002% alone",-
same,Bakterienwachstum nach 24 h Inkubation,"Bacillus subtilis; Octenidin 0,003% alone",-
same,Bakterienwachstum nach 24 h Inkubation,"Bacillus subtilis; Octenidin 0,005% alone",-
same,Bakterienwachstum nach 24 h Inkubation,"Bacillus subtilis; Octenidin 0,007% alone",-
same,Bakterienwachstum nach 24 h Inkubation,"Bacillus subtilis; Octenidin 0,009% alone",-
same,Toxizität (Zellschädigung),HCE-Zellen,stark zellschädigend
Benzalkoniumchlorid [BAK],Bakterienwachstum nach 24 h Inkubation,"Bacillus sp.; BAK 0.001% alone, no dye",-
same,Bakterienwachstum nach 24 h Inkubation,"[3]; BAK 0,01% alone, no dye",-
same,Bakterienwachstum nach 24 h Inkubation,"[3]; BAK 0,001 % alone, no dye",-
Brillantblau R [BBR],Bakterienwachstum nach 24 h Inkubation,Bacillus sp.; 0.007% R + BAK 0.001%,-
same,Bakterienwachstum nach 24 h Inkubation,Bacillus sp.; 0.007% R + BAK 0.01%,-
same,Bakterienwachstum nach 24 h Inkubation,"Bacillus sp.; 0.030% R, Kein BAK",+
same,Einfluss auf das Bakterienwachstum,"Bacillus sp.; dye alone, no BAK (rechte Spalte, Tabelle 2)",beeinflussen das Bakterienwachstum nicht
same,Bakterienwachstum nach 24 h Inkubation,"[3]; 0,007% R + BAK 0,01%",-
same,Bakterienwachstum nach 24 h Inkubation,"[3]; 0,007% R + BAK 0,001 %",+
same,Bakterienwachstum nach 24 h Inkubation,"[3]; 0,007% R + BAK 0,0016%",+
same,Bakterienwachstum nach 24 h Inkubation,"[3]; 0,007% R + BAK 0,0025%",-
same,Bakterienwachstum nach 24 h Inkubation,"[3]; 0,007% R + BAK 0,004%",-
same,Bakterienwachstum nach 24 h Inkubation,"[3]; 0,007% R + BAK 0,006%",-
same,Bakterienwachstum nach 24 h Inkubation,"[3]; 0,015% R + BAK 0,01%",-
same,Bakterienwachstum nach 24 h Inkubation,"[3]; 0,015% R + BAK 0,001 %",+
same,Bakterienwachstum nach 24 h Inkubation,"[3]; 0,015% R + BAK 0,0016%",+
same,Bakterienwachstum nach 24 h Inkubation,"[3]; 0,015% R + BAK 0,0025%",+
same,Bakterienwachstum nach 24 h Inkubation,"[3]; 0,015% R + BAK 0,004%",-
same,Bakterienwachstum nach 24 h Inkubation,"[3]; 0,015% R + BAK 0,006%",-
same,Bakterienwachstum nach 24 h Inkubation,"[3]; 0,030% R + BAK 0,01%",-
same,Bakterienwachstum nach 24 h Inkubation,"[3]; 0,030% R + BAK 0,001 %",+
same,Bakterienwachstum nach 24 h Inkubation,"[3]; 0,030% R + BAK 0,0016%",+
same,Bakterienwachstum nach 24 h Inkubation,"[3]; 0,030% R + BAK 0,0025%",+
same,Bakterienwachstum nach 24 h Inkubation,"[3]; 0,030% R + BAK 0,004%",+
same,Bakterienwachstum nach 24 h Inkubation,"[3]; 0,030% R + BAK 0,006%",+
same,Bakterienwachstum nach 24 h Inkubation,"[3]; 0,030% R, Kein BAK",+
same,Einfluss auf die bakteriostatische Wirkung von BAK,"[3]; Gram-negative Bakterien (E. coli), concentration dependent",hebt einen Teil der bakteriostatischen Wirkung auf
same,Einfluss auf das Bakterienwachstum,"[3]; dye alone, no BAK (rechte Spalte, Tabelle 1)",beeinflussen das Bakterienwachstum nicht
same,Schutzwirkung (zelltoxische Wirkung der Bakteriostatika bei gleichzeitiger Gabe),HCE-Zellen; dye given together with the bacteriostatic agent,zeigte sich diese Schutzwirkung nicht
